Experimental data published in patent US6730680B2 (priority 1999, dated 2004).
In brackets after ≈: the same amount, converted by molar mass.

What was measured:
[1] = tested on: Pyricularia oryzae; test: microbe, parasite or virus in culture; assay type: cell-based; details: read-out: MIC (Minimum Inhibitory Concentration)

| Compound | melting point | MIC [1] |
| --- | --- | --- |
| CC(C)Nc1c(-c2c(F)cc(F)cc2F)c(Cl)nc2ccnn12 | 143 °C | – |
| CC(C)N(C)c1c(-c2c(F)cc(F)cc2F)c(Cl)nc2ccnn12 | 109 °C | – |
| Fc1cc(F)c(-c2c(Cl)nc3ccnn3c2NC2CCCC2)c(F)c1 | 128 °C | – |
| CCN(CC)c1c(-c2c(F)cc(F)cc2F)c(Cl)nc2ccnn12 | 90 °C | – |
| Fc1cc(F)c(-c2c(Cl)nc3ccnn3c2NCC(F)(F)F)c(F)c1 [Example I-7, [5-chloro-6-(2,4,6-trifluoro-phenyl)-pyrazolo[1,5-α]pyrimidin-7-yl]-(2,2,2-trifluoro-ethyl)-amine] | – | 0.78 µg/mL (≈ 2.05 µM) |
